Data from patent US20050214217A1 (priority 2004, published 2005).
Entries after “also recorded” stand apart in the source; their conditions may differ.

Key:
normal human T-cells [1] = experiment: T-cell adhesion assay to fibronectin and laminin; assay type: cell-based; conditions: for Blocking of the glutamate effect on integrin-mediated T-cell adhesion to laminin and fibronectin: Glutamate 10 nM
Method: Adhesion of untreated cells (BG) serves as a control. The results are expressed as the OD405 of the lysed, fibronectin- or laminin-adherent cells remaining after incubation and repeated washings.
Adhesion of T-cells to fibronectin and laminin was assayed as follows: normal human T-cells, purified from a fresh blood sample, were suspended (1×10^6 cells/ml) in rest medium (RPMI-1640, supplemented with 10% fetal calf serum (Sigma Chemical Co., St. Louis, Mo.), 1% antibiotics, 1% glutamine (Biological Industries, Beit Haemek, Israel) and 0.4% fungizone (GibcoBRL, Life Technologies Ltd., Paisley, Scotland)). […] Following incubation the cells were washed and resuspended in adhesion medium (RPMI-1640 supplemented with 0.1% bovine serum albumin (BSA, Sigma)). The cells were then seeded in 96 well flat-bottomed microtiter plates (Falcon, Becton Dickinson, Heidelberg, Germany, 1×10^5 cells/100 μl/well pre-coated with fibronectin or laminin (ICN Biomedicals Inc., Aurora, Ohio, […], 18 hours, 4° C.). Cells treated with phorbol 12-myristate 13-acetate (PMA, Sigma, 10 ng/ml) served as a positive control. The adhesion plates were incubated (37° C., 30 minutes, 7.5% CO2 humidified incubator), and then washed several times with PBS to remove non-adherent T-cells. The adhered cells were lysed by adding 60 μl/well of lysis-substrate solution (0.5% Triton X-100 in water mixed with an equal volume of 7.5 mM p-nitrophenol-N-acetyl-β-D-glucosaminide (Sigma, St. Louis, Mo.) in 0.1M citrate buffer pH=5.0). The plates were then incubated for 18 h in a CO2-devoid 37° C. incubator, and the reaction was stopped by the addition of […] of 50 mM glycine (Sigma, St Louis, Mo.) pH=10.4, containing 5 mM EDTA. The optical density (OD) was measured at 405 nm in a standard ELISA reader. The OD was converted to actual number of cells using a standard curve performed in each experiment.

[2] = tested on: Bomapin mRNA in peripheral human T-cells; experiment: Bomapin expression by quantitative RT-PCR in peripheral human T-cells; assay type: cell-based
Method: PCR was performed for 30 cycles. The ethidium bromide bands corresponding to the amplified bomapin transcripts were quantified by AlphaEase program (Alpha Innotech, San Leandro, Calif., USA). Each PCR tube contained four oligonucleotides primers, two for the Bomapin and two for the internal control (S-14).
Neurotransmitters, agonists and antagonists were added and the cells were incubated at 37 C°, 5% CO2 for up to 72 hours, as indicated for individual experiments. The incubated T-cells were then collected and used for further experimentation.
Total RNA was extracted by using Trizol RNA isolation reagent (Molecular Research Center, Cincinnati, Ohio) based on the acid guanidinium thiocyanate-phenol-chloroform extraction method, according to manufacturer recommendations. RT-PCR was used to amplify the levels of endogenous Bomapin mRNA that may be present in the peripheral human T-cells and in the Jurkat cells (a human mature leukemic cell line that phenotypically resembles resting human T lymphocytes). The expression of the ribosomal protein S-14, derived from the same tissue preparations, served as an internal control. Each reaction contained four oligonucleotides primers, two for Bomapin and two for the internal control S-14. PCR conditions were: cDNA equivalent to 50 ng RNA was amplified for 30 cycles, the annealing temperature was 60° C. and the final MgCl2 concentration was 2.5 mM. […]

[3] = tested on: human peripheral lymphocytes; conditions: cited from earlier work
[4] = tested on: cloned resting human Th2 cells (clone 401); experiment: Cytokine secretion by ELISA, resting cloned Th2 cells; assay type: cell-based; conditions: 10^−8 M Glutamate, no antigen stimulation, versus untreated
Method: The results are expressed as pg/ml IL-4. Note the clear induction of IL-4 secretion in the Glutamate-treated cells, absent in the non-activated cells.
(§1) Human T-cell clones were prepared essentially as described by Besser M and Wank J (Besser M and Wank J, J Immunol 1999; 162:6303-306): Human PBMC were purified from whole blood by Ficoll gradient (Amersham Pharmacia Biotech, Freiburg, Germany). CD4^+ Th (T-helper) cells were isolated by using CD4 mAbs coupled to magnetic beads (Dynal, Hamburg, Germany). T cells were cultured at 1-2×10^6 cells/ml either in the presence of 1% PHA (Difco, Hamburg, Germany), 20 μg of anti-CD3 (OKT-3, Cilag, Sulzbach, Germany)-precoated plates in combination with IL-2 (20 U/ml) or IL-4 (100 U/ml), or with 100 ng/ml neurotrophins (Prepro, London, England), 20 U/ml IL-2 (Chiron, Ratingen, Germany), 100 U/ml IL-4 (Genzyme, Ruesselsheim, Germany) or 500 U/ml IFN-γ (Thomae, Bicherach an der Riss, Germany) alone. RPMI 1640 culture medium (Life Technologies, Eggenstein, Germany) was supplemented with 10% FCS (Life Technologies). […] Constitutive expression in immune cell bulk cultures was assessed immediately after cell separation, in cloned T lymphocytes after 3 days without further addition of IL-2.
(§2) Cytokine levels were measured in supernatants from Glutamate stimulated human T-cell cultured as described hereinabove. […]

[5] = tested on: resting human peripheral T-cells; experiment: Gene expression analysis with Atlas human cDNA expression array; assay type: cell-based; conditions: Glutamate 10 nM, 72 hours, autoradiography and densitometry
Text: FIGS. 1A-1D are tables illustrating the Glutamate-induced regulation of specific gene expression in the human T-cell, through analysis of gene expression using the atlas human cDNA expression array. […] The cDNA was hybridized to the atlas membranes according to the manual, and expression was visualized by autoradiography. […] Note the enhanced expression of T-cell genes such as Rapamycin-selective-25 KD Immunophilin (FKBP-25), Heat shock protein 40 (Hsp 40), Cathepsin E presursor, Carbonic anhydrase-related protein (carp) (ca-viii), peptidyl-glycine alpha-amidating monooxygenase presursor (pam), and axonemal dynein heavy chain (fragment) as well as of genes whose expression has been previously undetected in T cells such as Stimulator of Fe Transport (SFT), oviductal glycoprotein, Clathrin light chain, Protein Inhibitor of Activated STAT (PIAS) and Cartilage Intermediate Layer Protein (CILP) (FIG. 1A).
Hybridizations to the Atlas Human cDNA Expression Arrays membranes (Catalog No. 1.2 KIII (7850-1) and III (7855-1), Clontech Laboratories) were performed by Clonetech Laboratories, as described in the user manual. Analysis of the expression pattern of up and down regulated genes, as compared to that of untreated T-cells, was performed by Clontech, as described in their manual. […]

[6] = tested on: cloned human Th0 cells (clone 234); experiment: IFN-γ secretion by ELISA, activated (alloprimed) cloned Th0 cells; assay type: cell-based; conditions: 20 hours, 10^−8M Glutamate plus mismatched allopriming B cells, versus antigen stimulation alone
Method: (§3) The results are expressed as pg/ml IFN-γ.
as §1, with “Technologies). Alloprimed PBMC were seeded at 0.4 cell/well on allogeneic specific feeder layer.” for “Technologies).”
as §2

[7] = tested on: cloned resting human Th1 cells (clone 305); experiment: Cytokine secretion by ELISA, resting cloned Th1 cells; assay type: cell-based; conditions: 10^−8 M Glutamate, versus untreated
Method: The results are expressed as pg/ml IL-10.
The results are expressed as pg/ml IL-4.
as §1, with “Technologies). Alloprimed PBMC were seeded at 0.4 cell/well on allogeneic specific feeder layer.” for “Technologies).”
as §2

[8] = tested on: cloned human Th1 cells (clone 305); experiment: IFN-γ secretion by ELISA, activated (alloprimed) cloned Th1 cells; assay type: cell-based; conditions: 20 hours, 10^−8M Glutamate plus mismatched allopriming B cells, versus antigen stimulation alone
Method: as §3
as §1, with “Technologies). Alloprimed PBMC were seeded at 0.4 cell/well on allogeneic specific feeder layer.” for “Technologies).”
as §2

[9] = tested on: human T-cell lukemia (Jurkat) cells; experiment: Bomapin expression in Jurkat cells; assay type: cell-based
Text: (§4) Total RNA was extracted by using Trizol RNA isolation reagent (Molecular Research Center, Cincinnati, Ohio) based on the acid guanidinium thiocyanate-phenol-chloroform extraction method, according to manufacturer recommendations. RT-PCR was used to amplify the levels of endogenous Bomapin mRNA that may be present in the peripheral human T-cells and in the Jurkat cells (a human mature leukemic cell line that phenotypically resembles resting human T lymphocytes). The expression of the ribosomal protein S-14, derived from the same tissue preparations, served as an internal control. Each reaction contained four oligonucleotides primers, two for Bomapin and two for the internal control S-14. PCR conditions were: cDNA equivalent to 50 ng RNA was amplified for 30 cycles, the annealing temperature was 60° C. and the final MgCl2 concentration was 2.5 mM. The Taq DNA polymerase used in this study was the BIO-X-ACT DNA polymerase (Bioline UK Ltd., London. UK). The PCR products were separated electrophoretically on a 1.5% agarose gel containing ethidium bromide, and visualized under UV light.

[10] = tested on: GluR3 mRNA in normal human T-cells; experiment: GluR3 mRNA expression by RT-PCR; assay type: cell-based; conditions: Glutamate 10 mM, 24 hours
Text: FIGS. 10A and 10B are ethidium bromide stained gels of RT-PCR amplified cDNA from two similar experiments.
as §4, with “from cultured T-cells” for “by”, “RT-PCR was used to amplify the levels of endogenous Bomapin mRNA that may be present in the peripheral human T-cells and in the Jurkat cells (a human mature leukemic cell line that phenotypically resembles resting human T lymphocytes).” left out, “cell” for “tissue”, “GluR3” for “Bomapin”
GluR3—5′[…] 3′ (SEQ. ID NO: 8) and 5′ […] 3′ (SEQ ID NO: 9) corresponding to nucleotides 699-718 (sense) and 1312-1331 (antisense) respectively. The predicted size of the band is […].

normal human T-cells [11] = experiment: In-vitro chemotactic migration assay towards SDF-1; assay type: cell-based; conditions: pre-treatment 66 hours, Glutamate 10^−8, fibronectin-coated filters
Method: FIG. 8 illustrates the Glutamate-induced migration of normal human T-cells towards the chemokine SDF-1. […] The cells in each experimental group were counted by FACSORT. The results are expressed as the number of fluorescently-labeled migrating Glutamate-treated T-cells vs. untreated controls (Untreated).
The cells were then washed, resuspended in adhesion medium, and added to the upper chambers (2×10^5 cells per 100 μl well) of a 24-well chemotaxis microchamber plate (Corning Inc., Corning, N.Y.). The two compartments of the microchambers were separated by polycarbonate filters ([…]) pre-coated with fibronectin or laminin ([…], about 1.5 hour, 37° C.). The lower chambers contained adhesion medium, which was supplemented, where indicated, with 100-250 ng/ml of the chemokine stromal cell-derived factor 1a (SDF-1a, Peprotech Inc., Rocky Hill, N.J.). The chemotaxis microchamber plate was incubated (3 hours, 37° C., 7.5% CO2 humidified incubator), the filter-containing upper chambers were gently removed and the contents of the individual lower chambers (containing the migrated cells) thoroughly mixed by pipetting and transferred into clean tubes. The number of cells in each tube was determined by FACSORT. Counting time for all the experimental groups was two minutes. […]

[12] = CNQX added to Glutamate during incubation
[13] = PHA or mAb activated human peripheral lymphocytes
[14] = 10^−8M Glutamate, 30 minutes, versus untreated (BG)

N#Cc1cc2[nH]c(=O)c(=O)[nH]c2cc1[N+](=O)[O-] [CNQX]
Effect on Glutamate-mediated fibronectin binding (normal human T-cells [1]; [12]): strongly inhibits
Effect on Glutamate-mediated laminin binding (normal human T-cells [1]; [12]): strongly inhibits
Blocking of the glutamate effect on integrin-mediated T-cell adhesion to laminin and fibronectin (normal human T-cells [1]): blocked specifically
Glutamate-induced Bomapin transcripts in the presence of antagonist ([2]; T-cells treated with Glutamate in the presence of CNQX): absence of detectable Bomapin transcripts

N[C@@H](CCC(=O)O)C(=O)O [Glutamate]
Ca++ influx and proliferation in activated lymphocytes [3, 13]: induction of Ca^++ influx and proliferation
Effect on unstimulated, resting lymphocytes ([3]; high levels (1 mM) of Glutamate): no effect
IL-4 secretion [4]: strong release of IL-4
Differential pattern of gene expression versus untreated cells [5]: induced the over expression of mRNA encoding for several genes; also recorded: down-regulated the expression of others
T-cell adhesion to fibronectin (normal human T-cells [1]; [14]): significant increase
T-cell adhesion to laminin (normal human T-cells [1]; [14]): significant increase
IFN-γ secretion [6]: additional significant IFN-γ secretion
Bomapin mRNA level versus untreated cells ([2]; Glutamate 10 nM, 72 hours, 30 PCR cycles, S-14 internal control): about 6 fold
IL-4 secretion ("forbidden" cytokine) [7]: significant induction
IL-10 secretion ("forbidden" cytokine) [7]: significant induction
IFN-γ secretion [8]: additional significant IFN-γ secretion
Bomapin expression [9]: induces expression
RT-PCR-amplified GluR3 cDNA transcripts [10]: absence of RT-PCR-amplified GluR3 Glutamate receptor cDNA transcripts
Migration towards the chemoattractant SDF-1 (number of migrating cells) (normal human T-cells [11]): significantly augments

O=C(O)c1cc(=O)c2ccccc2[nH]1 [KYNA, reference compound]
Effect on Glutamate potentiation in activated lymphocytes [3, 13]: inhibition of Glutamate potentiation

NS(=O)(=O)c1cccc2c1c([N+](=O)[O-])cc1nc(O)c(O)nc12 [NBQX, reference compound]
Effect on Glutamate potentiation in activated lymphocytes [3, 13]: inhibition of Glutamate potentiation
Blocking of the glutamate effect on integrin-mediated T-cell adhesion to laminin and fibronectin (normal human T-cells [1]): blocked specifically
